# Experimental data reported in PubChem BioAssay (NCI).
#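 Results reflect a 48-hour exposure of cells in 96-well plates to compound at five concentrations. At the TGI there is no net growth.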
# Tests used:
# Assay in all cases: DTP human tumour cell line panel, 48 h
# MDA-MB-435 = system: MDA-MB-435
# IGROV1 ovarian = system: IGROV1 ovarian
# HS 578T breast = system: HS 578T breast
# UO-31 renal = system: UO-31 renal
# NCI-H23 lung = system: NCI-H23 lung
# 786-0 renal = system: 786-0 renal
# SK-OV-3 ovarian = system: SK-OV-3 ovarian
# ACHN renal = system: ACHN renal
# HL-60(TB) leukemia = system: HL-60(TB) leukemia
# KM12 colon = system: KM12 colon
# SK-MEL-2 melanoma = system: SK-MEL-2 melanoma
# MCF7 breast = system: MCF7 breast
# T-47D breast = system: T-47D breast
# EKVX NSCLC = system: EKVX NSCLC
# MDA-MB-231 breast = system: MDA-MB-231 breast
# OVCAR-4 ovarian = system: OVCAR-4 ovarian
# NCI/ADR-RES ovarian = system: NCI/ADR-RES ovarian
# SN12C renal = system: SN12C renal
# SK-MEL-5 melanoma = system: SK-MEL-5 melanoma
Compound,TGI (MDA-MB-435),TGI (IGROV1 ovarian),TGI (HS 578T breast),TGI (UO-31 renal),TGI (NCI-H23 lung),TGI (786-0 renal),TGI (SK-OV-3 ovarian),TGI (ACHN renal),TGI (HL-60(TB) leukemia),TGI (KM12 colon),TGI (SK-MEL-2 melanoma),TGI (MCF7 breast),TGI (T-47D breast),TGI (EKVX NSCLC),TGI (MDA-MB-231 breast),TGI (OVCAR-4 ovarian),TGI (NCI/ADR-RES ovarian),TGI (SN12C renal),TGI (SK-MEL-5 melanoma)
O=C(CNc1ccc(Cl)cc1)Nn1c(-c2ccccc2)nc2ccccc2c1=O,23.2 µM,15.7 µM,67 µM,20.4 µM,18 µM,10.2 µM,27.8 µM,22.3 µM,32.1 µM,24.5 µM,30.4 µM,8.06 µM,32.6 µM,35.7 µM,13.6 µM,27 µM,19 µM,20.9 µM,7.09 µM
O=C(Nc1ccc2nc(-c3ccccc3)cn2c1)Oc1ccccc1,47.5 µM,> 100 µM,> 100 µM,> 100 µM,> 100 µM,> 100 µM,> 100 µM,> 100 µM,> 100 µM,> 100 µM,> 100 µM,> 100 µM,76.9 µM,> 100 µM,> 100 µM,> 100 µM,> 100 µM,> 100 µM,> 100 µM
COc1cc(C2c3cc4c(cc3[C@H](OCCN(C)C)[C@@H]3COC(=O)C23)OCO4)cc(OC)c1O (stereo partly specified),16.9 µM,7.5 µM,6.04 µM,1.71 µM,1.3 µM,0.439 µM,1.31 µM,0.253 µM,0.118 µM,8.95 µM,2.44 µM,> 100 µM,2.52 µM,1.5 µM,39.3 µM,4.97 µM,15.1 µM,0.598 µM,1.74 µM
Cc1cccc2c(N)c3cccc(C(=O)NCCCNCCN)c3nc12,29.1 µM,28.9 µM,3.71 µM,46.8 µM,10.9 µM,11.4 µM,> 62.8 µM,32.8 µM,> 64.3 µM,19.5 µM,34 µM,11 µM,24.8 µM,33.2 µM,12.9 µM,10.5 µM,77.9 µM,2.25 µM,22.8 µM
CN1CCC(OC(=O)Oc2ccccc2)(c2ccccc2)CC1,33.7 µM,64.5 µM,54.3 µM,54.2 µM,35.7 µM,> 100 µM,52.9 µM,> 100 µM,36.6 µM,37.5 µM,33.2 µM,35.1 µM,52.1 µM,79.5 µM,29.1 µM,48.4 µM,39.2 µM,43.8 µM,34.2 µM
COC12C=CC(CC1)C(C)(C)C2=O (stereo unspecified),> 100 µM,> 100 µM,> 100 µM,> 100 µM,> 100 µM,> 100 µM,> 100 µM,> 100 µM,> 100 µM,> 100 µM,> 100 µM,> 100 µM,> 100 µM,> 100 µM,> 100 µM,> 100 µM,> 100 µM,> 100 µM,> 100 µM
Nc1nc(Cl)cc(NCC2(CO)COC2)n1,> 100 µM,> 100 µM,> 100 µM,> 100 µM,> 100 µM,> 100 µM,> 100 µM,> 100 µM,> 100 µM,> 100 µM,> 100 µM,> 100 µM,> 100 µM,> 100 µM,> 100 µM,> 100 µM,> 100 µM,> 100 µM,> 100 µM
CCOC(=O)/C(O)=C(/C=NC(=S)c1ccncc1)C(=O)OCC,> 100 µM,> 100 µM,> 100 µM,> 100 µM,> 100 µM,> 100 µM,> 100 µM,> 100 µM,> 100 µM,> 100 µM,> 100 µM,> 100 µM,> 100 µM,> 100 µM,> 100 µM,> 100 µM,> 100 µM,> 100 µM,> 100 µM
COC(=O)c1ccc2c(c1)CC1(C2)Cc2cc3c(cc2C1=O)CCC3 (stereo unspecified),57.4 µM,> 100 µM,> 100 µM,> 100 µM,> 100 µM,> 100 µM,> 100 µM,> 100 µM,39.8 µM,23.1 µM,> 100 µM,50.9 µM,> 100 µM,> 100 µM,> 100 µM,> 100 µM,51.3 µM,> 100 µM,21.2 µM
